According to patent US6686373B2, “Pyrazoloquinolinone derivatives as protein kinase C inhibitors” (Warner-Lambert Company LLC, priority 2001, dated 2004):
Counter-ions that a name gives are not always drawn.

melting point | Compound
266 °C | CCc1ccc2[nH]c3cnn(C)c3c(=O)c2c1 [Example 6, 7-ETHYL-1-METHYL-1,4-DIHYDRO-9H-PYRAZOLO[4,3-b]QUINOLIN-9-ONE]
196 °C | Cc1ccc2c(c1)c(=O)c1c(cnn1C)n2CCCl [Example 62, 4-(2-CHLOROETHYL)-1,7-DIMETHYL-1,4-DIHYDRO-9H-PYRAZOLO[4,3-b]QUINOLIN-9-ONE]
> 300 °C | Cl.Cn1ncc2[nH]c3ccc(CCCN)cc3c(=O)c21
301 °C | Cn1ncc2[nH]c3ccc(F)cc3c(=O)c21 [Example 1, 7-FLUORO-1-METHYL-1,4-DIHYDRO-9H-PYRAZOLO[4,3-b]QUINOLIN-9-ONE]
255 °C | Cc1ccc2c(c1)c(=O)c1c(cnn1C)n2CCN(C)C.Cl
179 °C | Cc1ccc2c(c1)c(=O)c1c(cnn1C)n2CCCNS(C)(=O)=O [Example 60, N-[3-(1,7-DIMETHYL-9-OXO-1,9-DIHYDRO-4H-PYRAZOLO[4,3-b]QUINOLIN-4-YL)PROPYL]METHANESULFONAMIDE]
240 °C | Cc1ccc2c(c1)c(=O)c1c(cnn1C)n2CCCN(C)C.Cl
262 °C | CCCCn1c2ccc(C)cc2c(=O)c2c1cnn2C [Example 48, 4-BUTYL-1,7-DIMETHYL-1,4-DIHYDRO-9H-PYRAZOLO[4,3-b]QUINOLIN-9-ONE]
> 300 °C | Cc1ccc2[nH]c3c(N)nn(C)c3c(=O)c2c1 [Example 12, 3-AMINO-1,7-DIMETHYL-1,4-DIHYDRO-9H-PYRAZOLO[4,3-b]QUINOLIN-9-ONE]
> 280 °C | Cc1ccc2c(c1)c(=O)c1c(cnn1C)n2CCN.Cl
210 °C | Cc1ccc2c(c1)c(=O)c1c(cnn1C)n2CCCCCCN(C)C.Cl
254 °C | CCc1cccc2c(=O)c3c(cnn3C)[nH]c12 [Example 7, 5-ETHYL-1-METHYL-1,4-DIHYDRO-9H-PYRAZOLO[4,3-b]QUINOLIN-9-ONE]
263 °C | CCc1ccc2c(=O)c3c(cnn3C)[nH]c2c1 [Example 9, 6-ETHYL-1-METHYL-1,4-DIHYDRO-9H-PYRAZOLO[4,3-b]QUINOLIN-9-ONE]
214 to 219 °C | Cc1ccc2c(c1)c(=O)c1c(cnn1C)n2CC#N [Example 51, (1,7-DIMETHYL-9-OXO-1,9-DIHYDRO-4H-PYRAZOLO[4,3-b]QUINOLIN-4-YL)ACETONITRILE]
213 °C | CCN(C)CCCn1c2ccc(C)cc2c(=O)c2c1cnn2C.Cl
80 to 82 °C | CCCCCCn1c2ccc(C)cc2c(=O)c2c1cnn2C
247 to 252 °C | Cc1ccc2c(c1)c(=O)c1c(cnn1C)n2CC(N)=O [Example 52, 2-(1,7-DIMETHYL-9-OXO-1,9-DIHYDRO-4H-PYRAZOLO[4,3-b]QUINOLIN-4-YL)ACETAMIDE]
269 °C | Cn1ncc2[nH]c3cc(F)ccc3c(=O)c21 [Example 3, 6-FLUORO-1-METHYL-1,4-DIHYDRO-9H-PYRAZOLO[4,3-b]QUINOLIN-9-ONE]
250 °C | CCc1cccc2[nH]c3cnn(C)c3c(=O)c12 [Example 8, 8-ETHYL-1-METHYL-1,4-DIHYDRO-9H-PYRAZOLO[4,3-b]QUINOLIN-9-ONE]
125 °C | CSCCn1c2ccc(C)cc2c(=O)c2c1cnn2C [Example 53, 1,7-DIMETHYL-4-[2-(METHYLSULFANYL)ETHYL]-1,4-DIHYDRO-9H-PYRAZOLO[4,3-b]QUINOLIN-9-ONE]

The remaining lines, values behind:

Compound | melting point
Cn1ncc2[nH]c3ccc(NC(=O)c4ccccc4)cc3c(=O)c21 [Example 46, N-(1-METHYL-9-OXO-4,9-DIHYDRO-1H-PYRAZOLO[4,3-b]QUINOLIN-7-YL)BENZAMIDE] | > 300 °C
Cn1ncc2[nH]c3ccc(Cc4cccc([N+](=O)[O-])c4)cc3c(=O)c21 [Example 23, 1-METHYL-7-(3-NITROBENZYL)-1,4-DIHYDRO-9H-PYRAZOLO[4,3-b]QUINOLIN-9-ONE] | 279 to 283 °C
Cl.Cn1ncc2[nH]c3ccc(Cc4cccc(CN)c4)cc3c(=O)c21 | > 300 °C
Cl.Cn1ncc2[nH]c3ccc(Cc4ccc(CN)cc4)cc3c(=O)c21 | > 300 °C
Cn1ncc2[nH]c3c(F)cccc3c(=O)c21 [Example 2, 5-FLUORO-1-METHYL-1,4-DIHYDRO-9H-PYRAZOLO[4,3-b]QUINOLIN-9-ONE] | > 300 °C
Cn1ncc2[nH]c3c(Br)cccc3c(=O)c21 [Example 5, 5-BROMO-1-METHYL-1,4-DIHYDRO-9H-PYRAZOLO[4,3-b]QUINOLIN-9-ONE] | 287 °C
Cn1ncc2[nH]c3cccc(-c4ccc(O)cc4)c3c(=O)c21 [Example 38, 8-(4-HYDROXYPHENYL)-1-METHYL-1,4-DIHYDRO-9H-PYRAZOLO[4,3-b]QUINOLIN-9-ONE] | > 300 °C
Cn1ncc2[nH]c3cccc(F)c3c(=O)c21 [Example 4, 8-FLUORO-1-METHYL-1,4-DIHYDRO-9H-PYRAZOLO[4,3-b]QUINOLIN-9-ONE] | > 300 °C
Cn1ncc2[nH]c3cccc(-c4cccc(O)c4)c3c(=O)c21 [Example 39, 8-(3-HYDROXYPHENYL)-1-METHYL-1,4-DIHYDRO-9H-PYRAZOLO[4,3-b]QUINOLIN-9-ONE] | > 300 °C
Cn1ncc2[nH]c3ccc(Cc4cccc(C(N)=O)c4)cc3c(=O)c21 [Example 29, 3-[(1-METHYL-9-OXO-4,9-DIHYDRO-1H-PYRAZOLO[4,3-b]QUINOLIN-7-YL)METHYL]BENZAMIDE] | > 300 °C
Cl.Cn1ncc2[nH]c3ccc(Cc4cccnc4)cc3c(=O)c21 | 259 °C
Cn1ncc2[nH]c3c(c(=O)c21)CCCC3 [Example 67, 1-METHYL-5,6,7,8-TETRAHYDRO-1H-PYRAZOLO[4,3-b]QUINOLIN-9-OL] | > 300 °C
Cn1ncc2[nH]c3ccc(Cc4ccccc4)cc3c(=O)c21 [Example 11, 7-BENZYL-1-METHYL-1,4-DIHYDRO-9H-PYRAZOLO[4,3-b]QUINOLIN-9-ONE] | 282 °C
Cn1ncc2[nH]c3c(c(=O)c21)CC(Cc1ccc(Cl)cc1)CC3 (stereo not drawn) (as salt: hydrochloride) | 279 °C
Cn1ncc2[nH]c3ccc(Cc4cccc(C#N)c4)cc3c(=O)c21 [Example 28, 3-[(1-METHYL-9-OXO-4,9-DIHYDRO-1H-PYRAZOLO[4,3-b]QUINOLIN-7-YL)METHYL]BENZONITRILE] | 275 °C
CN(C)CCOc1ccc(Cc2ccc3[nH]c4cnn(C)c4c(=O)c3c2)cc1.Cl | 235 to 240 °C
Cn1ncc2[nH]c3ccc(Cc4ccc(C#N)cc4)cc3c(=O)c21 [Example 26, 4-[(1-METHYL-9-OXO-4,9-DIHYDRO-1H-PYRAZOLO[4,3-b]QUINOLIN-7-YL)METHYL]BENZONITRILE] | 291 °C
Cn1ncc2[nH]c3c(c(=O)c21)CC(Cc1ccccc1)CC3 (stereo not drawn) (as salt: hydrochloride) | > 250 °C
COc1ccc(Cc2ccc3[nH]c4cnn(C)c4c(=O)c3c2)cc1 [Example 16, 7-(4-METHOXYBENZYL)-1-METHYL-1,4-DIHYDRO-9H-PYRAZOLO[4,3-b]QUINOLIN-9-ONE] | 248 to 249 °C
Cl.Cn1ncc2[nH]c3ccc(Cc4cccc(N)c4)cc3c(=O)c21 | 287 °C (dec.)
Cl.Cn1ncc2[nH]c3ccc(Cc4ccccc4CN)cc3c(=O)c21 | > 250 °C
Cn1ncc2[nH]c3ccc(Cc4cccc(O)c4)cc3c(=O)c21 [Example 20, 7-(3-HYDROXYBENZYL)-1-METHYL-1,4-DIHYDRO-9H-PYRAZOLO[4,3-b]QUINOLIN-9-ONE] | > 270 °C
Cl.Cn1ncc2[nH]c3ccc(Cc4ccccc4N)cc3c(=O)c21 | 273 °C
Cn1ncc2[nH]c3ccc(Cc4ccccc4Cl)cc3c(=O)c21 [Example 15, 7-(2-CHLOROBENZYL)-1-METHYL-1,4-DIHYDRO-9H-PYRAZOLO[4,3-b]QUINOLIN-9-ONE] | 278 °C
Cn1ncc2[nH]c3ccc(Cc4ccccc4C(N)=O)cc3c(=O)c21 [Example 32, 2-[(1-METHYL-9-OXO-4,9-DIHYDRO-1H-PYRAZOLO[4,3-b]QUINOLIN-7-YL)METHYL]BENZAMIDE] | > 300 °C
Cn1ncc2[nH]c3ccc(Cc4cccc(C(=O)O)c4)cc3c(=O)c21 [Example 30, 3-[(1-METHYL-9-OXO-4,9-DIHYDRO-1H-PYRAZOLO[4,3-b]QUINOLIN-7-YL)METHYL]BENZOIC ACID] | > 300 °C
Cn1ncc2[nH]c3ccc(-c4cccc(O)c4)cc3c(=O)c21 [Example 40, 7-[3-HYDROXYPHENYL]-1-METHYL-1,4-DIHYDRO-9H-PYRAZOLO[4,3-b]QUINOLIN-9-ONE] | > 250 °C
COc1ccccc1Cc1ccc2[nH]c3cnn(C)c3c(=O)c2c1 [Example 21, 7-(2-METHOXYBENZYL)-1-METHYL-1,4-DIHYDRO-9H-PYRAZOLO[4,3-b]QUINOLIN-9-ONE] | 255 °C
